Measured values published in PMC12751012, “Nanoscale Direct-to-Biology Optimization and Structural Insights into Selective S. aureus TrmD Inhibitors” (Journal of Medicinal Chemistry, 2025).

Molecular target: T1, S. aureus TrmD (Staphylococcus aureus, UniProt Q2FZ43)
T1 construct: made in house; host or cells: E. coli BL21
T1 sequence (Q2FZ43 1-245): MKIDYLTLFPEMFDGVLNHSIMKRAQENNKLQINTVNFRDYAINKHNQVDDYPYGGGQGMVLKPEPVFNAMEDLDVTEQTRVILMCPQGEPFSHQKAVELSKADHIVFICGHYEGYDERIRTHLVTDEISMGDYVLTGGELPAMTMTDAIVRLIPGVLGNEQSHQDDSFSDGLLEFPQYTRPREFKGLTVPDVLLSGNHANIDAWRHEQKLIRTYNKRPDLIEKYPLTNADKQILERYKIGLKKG
Assay: nanoSAR direct-to-biology FP displacement screening of crude triazoles
Assay type: binding
Settings: crude triazole at 1 μM, assuming full conversion; 500 nM TrmD, 10 nM tracer 4; read-out: % displaced tracer
From the text: Next, we conducted an S. aureus TrmD-targeting nanoSAR study. For this, alkyne 7 was reacted on a 96 nmol scale with an in-house diversity-oriented azide library (N = 320, mean pairwise Tanimoto similarity = 0.11) designed to cover a large chemical fragment space, generating a panel of 320 crude triazoles ready for FP assay investigation. The composition of the azide library is designed to be chemically diverse in several categories, including physicochemical properties such as polar surface area, lipophilicity, and the number of hydrogen bond donors and acceptors, as well as structural features like the number of aromatic rings (Figure S23). A complete list of chemical structures included in the azide library can be found in Table S4. In situ reaction conditions for CuAAC were adapted from Gehrtz et al., utilizing CuSO4, which is reduced in situ to Cu(I) by sodium ascorbate and stabilized by TBTA. Degassed water and DMSO (1:1) were used as solvents to prevent the oxidation from Cu(I) to Cu(II). For the synthesis of the triazole library, a master mix was prepared, containing all reaction components except the azides. All reactions were started by the addition of the respective azide in 24 μL at a final product concentration of 4 mM (96 nmol). Reaction mixtures were incubated for 16 h at room temperature and under an argon atmosphere in sealed 96-well plates.
For FP assay screening, we used 500 nM of S. aureus TrmD and 10 nM of tracer 4 in a total volume of 40 μL in 96-well plates. We performed control measurements and defined 10 nM of tracer 4 in buffer as 100% displacement and the DMSO control as 0% tracer displacement. […] The results of the FP screening were visualized in a waterfall plot and plate-based heatmaps (Figure , Figure S3).
Fluorescence polarization (FP) assays were performed as follows. The assays for H. influenzae TrmD have been described previously. All assays were conducted in technical triplicate using black 96-well half area plates. For the FP assays, a tracer (20 nM Cy5TPD for E. coli and H. influenzae TrmD, 10 nM tracer 4 for S. aureus TrmD) was mixed with the respective enzyme (2 μM E. coli TrmD, 2 μM H. influenzae TrmD, 500 nM S. aureus TrmD) in buffer (E. coli and H. influenzae TrmD: 50 mM HEPES, 500 mM NaCl, 5% Glycerol, pH 7.5, S. aureus TrmD: 40 mM Tris HCl, 100 mM NaCl, 10 mM MgCl2, 5% Glycerol, pH 7.5). The compounds were added in varying concentrations for K D-value determination. […] The Z-factor for tracer 4 was determined by measuring 48 replicates of the free tracer (positive controls, PC) and 48 replicates of a mixture of enzyme and tracer (negative controls, NC). The Z-factor is defined in terms of the means (μ) and standard deviations (σ) of the positive and negative controls and calculated as Z = 1–(3*(σnc + σpc)/(μnc–μpc)). […] Polarization values (mP) were determined from polarization-specific parallel and orthogonal fluorescence intensities. K D-values were calculated in GraphPad Prism 8.0.1 using the four-parameter Hill equation: y(% tracer bound) = bottom + ([ligand]-slope) × (top–bottom)/([ligand]-slope + K Dslope).
A commercial azide diversity library (Enamine) containing 320 azides at a concentration of 100 mM in DMSO in a 96-well tube rack was employed for this nanoSAR study. For the reaction of the azides with alkyne 7 via CuAAC, a master mix was prepared. […] The solvents were degassed with argon to avoid oxidation of the copper(I) during the reaction. To each well of a 96-well PCR plate (Applied Biosystems MicroAmp) were added 23 μL of the master mix and 1 μL of the 100 mM azide stock. The final concentrations in the Mastermix were: 8.7 mM sodium ascorbate (8.3 mM in reaction well), 1.1 mM TBTA (1.0 mM in reaction well), 4.3 mM 7 (4.1 mM in reaction well), 1.3 mM CuSO4×5 H2O (1.2 mM in reaction well).

Row | Compound | inhibition at 1 µM
1 | O=c1[nH]cnc2[nH]cc(-c3cn(C[C@@H]4CCCC4(F)F)nn3)c12 [Compound 01F12, F[C@@]1(F)[C@H](CN2N=NC(C=3C=4C(=O)NC=NC4NC3)=C2)CCC1] | 79%
2 | NS(=O)(=O)c1ccccc1-n1cc(-c2c[nH]c3nc[nH]c(=O)c23)nn1 [Compound 01G01, S(=O)(=O)(N)c1c(N2N=NC(C=3C=4C(=O)NC=NC4NC3)=C2)cccc1] | 42%
3 | CCc1nc(C)c(Cn2cc(-c3c[nH]c4nc[nH]c(=O)c34)nn2)o1 [Compound 01G02, O=C1NC=NC=2NC=C(C=3N=NN(C3)CC=4OC(=NC4C)CC)C12] | 71%
4 | CC(C)CN1CCO[C@H](Cn2cc(-c3c[nH]c4nc[nH]c(=O)c34)nn2)C1 [Compound 01G03, O=C1NC=NC=2NC=C(C=3N=NN(C3)C[C@H]4OCC[N@H+](C4)CC(C)C)C12] | 46%
5 | O=c1[nH]cnc2[nH]cc(-c3cn(-c4ccc5c(c4)CNCC5)nn3)c12 [Compound 01G04, O=C1NC=NC=2NC=C(C=3N=NN(c4cc5c(cc4)CC[NH2+]C5)C3)C12] | 33%
6 | O=c1[nH]cnc2[nH]cc(-c3cn(CCCO)nn3)c12 [Compound 01G05, O=C1NC=NC=2NC=C(C=3N=NN(C3)CCCO)C12] | 32%
7 | O=c1[nH]cnc2[nH]cc(-c3cn(Cc4cc(C(F)F)on4)nn3)c12 [Compound 01G06, FC(F)C=1ON=C(C1)CN2N=NC(C=3C=4C(=O)NC=NC4NC3)=C2] | 38%
8 | O=C(c1ccco1)n1cc(-c2c[nH]c3nc[nH]c(=O)c23)nn1 [Compound 01G07, O=C(N1N=NC(C=2C=3C(=O)NC=NC3NC2)=C1)C=4OC=CC4] | 28%
9 | COC(=O)c1ccc(Cn2cc(-c3c[nH]c4nc[nH]c(=O)c34)nn2)o1 [Compound 01G08, O=C(OC)C=1OC(=CC1)CN2N=NC(C=3C=4C(=O)NC=NC4NC3)=C2] | 44%
10 | O=c1[nH]cnc2[nH]cc(-c3cn(-c4ccc(O)cc4)nn3)c12 [Compound 01G09, O=C1NC=NC=2NC=C(C=3N=NN(c4ccc(O)cc4)C3)C12] | 23%
11 | O=c1[nH]cnc2[nH]cc(-c3cn([C@@H]4C[C@H]5CC[C@@H](C4)N5)nn3)c12 [Compound 01G10, O=C1NC=NC=2NC=C(C=3N=NN(C3)[C@@H]4C[C@@H]5[NH2+][C@H](C4)CC5)C12] | 44%
12 | C[C@H](c1ccc(F)cc1Cl)n1cc(-c2c[nH]c3nc[nH]c(=O)c23)nn1 [Compound 01G11, Clc1c(ccc(F)c1)[C@H](N2N=NC(C=3C=4C(=O)NC=NC4NC3)=C2)C] | 56%
13 | CS(=O)(=O)NC(=O)Cn1cc(-c2c[nH]c3nc[nH]c(=O)c23)nn1 [Compound 01G12, S(=O)(=O)(NC(=O)CN1N=NC(C=2C=3C(=O)NC=NC3NC2)=C1)C] | 27%
14 | CC(F)(F)c1cccc(Cn2cc(-c3c[nH]c4nc[nH]c(=O)c34)nn2)n1 [Compound 01H01, FC(F)(c1nc(ccc1)CN2N=NC(C=3C=4C(=O)NC=NC4NC3)=C2)C] | 63%
15 | CC1(Cn2cc(-c3c[nH]c4nc[nH]c(=O)c34)nn2)COC1 [Compound 01H02, O=C1NC=NC=2NC=C(C=3N=NN(C3)CC4(COC4)C)C12] | 58%
16 | Cc1ccc(Cn2cc(-c3c[nH]c4nc[nH]c(=O)c34)nn2)o1 [Compound 01H03, O=C1NC=NC=2NC=C(C=3N=NN(C3)CC=4OC(=CC4)C)C12] | 33%
17 | O=c1[nH]cnc2[nH]cc(-c3cn(Cc4cc(C(F)(F)F)on4)nn3)c12 [Compound 01H04, FC(F)(F)C=1ON=C(C1)CN2N=NC(C=3C=4C(=O)NC=NC4NC3)=C2] | 22%

Row | Compound | inhibition at 1 µM
18 | O=C1c2ccccc2C(=O)N1CCn1cc(-c2c[nH]c3nc[nH]c(=O)c23)nn1 [Compound 01H05, O=C1N(C(=O)c2c1cccc2)CCN3N=NC(C=4C=5C(=O)NC=NC5NC4)=C3] | 13%
19 | Cc1nc2cc(-n3cc(-c4c[nH]c5nc[nH]c(=O)c45)nn3)ccc2s1 [Compound 01H06, S1c2c(N=C1C)cc(N3N=NC(C=4C=5C(=O)NC=NC5NC4)=C3)cc2] | 26%
20 | O=c1[nH]cnc2[nH]cc(-c3cn(CCOC4CCSCC4)nn3)c12 [Compound 01H07, S1CCC(OCCN2N=NC(C=3C=4C(=O)NC=NC4NC3)=C2)CC1] | 54%
21 | O=C1CC[C@@H](N2Cc3cc(-n4cc(-c5c[nH]c6nc[nH]c(=O)c56)nn4)ccc3C2=O)C(=O)N1 [Compound 01H08, O=C1N([C@H]2C(=O)NC(=O)CC2)Cc3c1ccc(N4N=NC(C=5C=6C(=O)NC=NC6NC5)=C4)c3] | 23%
22 | CCN(CC)CCn1cc(-c2c[nH]c3nc[nH]c(=O)c23)nn1 [Compound 01H09, O=C1NC=NC=2NC=C(C=3N=NN(C3)CC[NH+](CC)CC)C12] | 27%
23 | O=c1[nH]cnc2[nH]cc(-c3cn(-c4cc(F)cc(Cl)c4)nn3)c12 [Compound 01H10, Clc1cc(F)cc(N2N=NC(C=3C=4C(=O)NC=NC4NC3)=C2)c1] | 12%
24 | O=c1[nH]cnc2[nH]cc(-c3cn(CCN4CCC(O)CC4)nn3)c12 [Compound 01H11, O=C1NC=NC=2NC=C(C=3N=NN(C3)CC[N@H+]4CC[C@H](O)CC4)C12] | 38%
25 | CCOP(=O)(CCCn1cc(-c2c[nH]c3nc[nH]c(=O)c23)nn1)OCC [Compound 01H12, P(=O)(OCC)(OCC)CCCN1N=NC(C=2C=3C(=O)NC=NC3NC2)=C1] | 33%
26 | COc1ccnc(-n2cc(-c3c[nH]c4nc[nH]c(=O)c34)nn2)n1 [Compound 02A01, O=C1NC=NC=2NC=C(C=3N=NN(c4nc(OC)ccn4)C3)C12] | 19%
27 | NC[C@H]1CCC[C@@H](Cn2cc(-c3c[nH]c4nc[nH]c(=O)c34)nn2)C1 [Compound 02A02, O=C1NC=NC=2NC=C(C=3N=NN(C3)C[C@H]4C[C@@H](C[NH3+])CCC4)C12] | 31%
28 | CC(C)CSCCCn1cc(-c2c[nH]c3nc[nH]c(=O)c23)nn1 [Compound 02A03, S(CC(C)C)CCCN1N=NC(C=2C=3C(=O)NC=NC3NC2)=C1] | 35%
29 | COc1ccc(C(F)(F)F)cc1-n1cc(-c2c[nH]c3nc[nH]c(=O)c23)nn1 [Compound 02A04, FC(F)(F)c1cc(N2N=NC(C=3C=4C(=O)NC=NC4NC3)=C2)c(OC)cc1] | 20%
30 | O=c1[nH]cnc2[nH]cc(-c3cn(-c4cccc5cn[nH]c45)nn3)c12 [Compound 02A05, O=C1NC=NC=2NC=C(C=3N=NN(c4c5NN=Cc5ccc4)C3)C12] | 1.22%
31 | O=c1[nH]cnc2[nH]cc(-c3cn(S(=O)(=O)c4ccc5c(c4)CCO5)nn3)c12 [Compound 02A06, O=S(C1=CC2=C(OCC2)C=C1)(N3N=NC(C4=CNC(N=CN5)=C4C5=O)=C3)=O] | -1.83%
32 | O=c1[nH]cnc2[nH]cc(-c3cn(C[C@H]4COc5ccccc5O4)nn3)c12 [Compound 02A07, O=C1NC=NC=2NC=C(C=3N=NN(C3)C[C@@H]4Oc5c(OC4)cccc5)C12] | 81%
33 | O=c1[nH]cnc2[nH]cc(-c3cn(C4CCCCC4)nn3)c12 [Compound 02A08, O=C1NC=NC=2NC=C(C=3N=NN(C3)C4CCCCC4)C12] | 11%
34 | O=c1[nH]cnc2[nH]cc(-c3cn(Cc4cc(=O)n5nccc5[nH]4)nn3)c12 [Compound 02A09, O=C1N2N=CC=C2NC(=C1)CN3N=NC(C=4C=5C(=O)NC=NC5NC4)=C3] | 12%
